Measured values taken from patent publication US20220192984A1, “PHARMACEUTICAL COMPOSITIONS COMPRISING OTIC THERAPEUTIC AGENTS AND RELATED METHODS” (Frequency Therapeutics, Inc., priority 2018, published 2022).
Where “and” joins values, the source holds several entries; their conditions need not be identical. Identical values can stand only once.

How the values were obtained:
Lgr5+ cells = experiment: Lgr5+ Assay (Lgr5+ cell assay in vitro); assay type: cell-based
[1] = Perilymph Conc. listed for agents (Tables 14-25)
[2] = Stability of the filtered solution prior to lyophilization by HPLC (Example 2); assay type: physicochemical; conditions: room temperature
Protocol: Stability Analysis: Prior to lyophilization, the stability of the filtered solution was analyzed by HPLC. The solution was held at room temperature for 4 hours, and samples of the solution was analyzed by HPLC during the period of time. […] Further, about 100% of sodium valproate remained in the solution.

[3] = assay type: physicochemical; conditions: lyophilized composition (Dosage 1) stored at 5° C., room temperature or 40° C. under 75% relative humidity in the dark
Protocol: Stability Analysis: The stability of the lyophilized composition formulation (Dosage 1) was analyzed upon storage at 5° C., room temperature, or 40° C. under 75% relative humidity in the dark Samples were taken at various time points, reconstituted as described in Example 4 and samples analyzed by HPLC. […] About 100% of sodium valproate remained.
Long-term stability of the lyophilized composition formulation (Dosage 1) was tested. The composition was held at room temperature (ambient) in the dark for two months and reconstituted as described in Example 4 below.

[4] = Stability of reconstituted higher concentration formulation at 2-8° C. for 8 hours (Table D); assay type: physicochemical; conditions: Post Lyo
[5] = Stability of the non-lyophilized test composition under refrigeration (Example 13); assay type: physicochemical; conditions: freshly compounded test composition, refrigerator, 0 to 120 hours
[6] = Stability of the reconstituted test composition in refrigerated syringes (Example 13); assay type: physicochemical; conditions: for time assay levels remained stable with initial levels: reconstituted test composition in polypropylene syringes, refrigerated
[7] = Storage stability of the lyophilized test composition (Table 27); assay type: physicochemical
Protocol: The lyophilized composition was stored in a glass container with rubber closure and crimp seal under refrigeration for 6 months and at −20° C. for 24 months.

[8] = Reconstitution time of lyophilized compositions (Tables E, 28, 35); assay type: physicochemical
Protocol: Diluent 1, 0.85 mL+lyophilized cake. […] Gentle tapping on the exterior of the vessel to help the cake dissolve in the Diluent may be required while keeping it in fridge (or ice bath). To avoid degradation of the composition, minimize stirring and/or vortexing.
Diluent 1, 0.95 mL+Placebo cake: Using a syringe, add the Diluent to the Placebo cake, and rest in a fridge or ice bath (2-8° C.) for 60 minutes or until clear solution is formed. Gentle tapping on the exterior of the vessel to help the cake dissolve in the Diluent may be required while keeping it in fridge (or ice bath). To avoid degradation of the composition, minimize stirring and/or vortexing.
Powder P407 (i.e. non-lyophilized) can be obtained from BASF.
Reconstitution of lyophilized P407 (Placebo) and powder P407 was done using 850 μL Diluent (see above for example preparations of a Diluent) in a vial.
Therefore, to probe the effect of salts other than sodium valproate on reconstitution time, a poloxamer solution at 16.15% concentration either alone or including a salt (e.g. an inorganic salt or organic acid salt) at a concentration of 533.25 mM, was lyophilized. The lyophilized material was then reconstituted using Diluent for reconstitution (6.4% DMSO by wt. % in water) or with water.
Building on the results of Examples 14 to 16, further lyophilized compositions were manufactured and had their reconstitution times evaluated. […] The further lyophilized compositions were made in accordance with Example 10, and reconstituted in accordance with Example 12.

HDAC = conditions: Mechanism HDAC Inhib 1, 2, 3, 8; cited from earlier work
[9] = Table 18; cited from earlier work
MAOs A and B = conditions: Table 18, one value, isoform not told; read-out: Select MAOs A and B; cited from earlier work
ErbB3/HER3 = ErbB3/HER3 (Homo sapiens, UniProt P21860); conditions: read-out: HER 3 pKi or IC50 (converted); cited from earlier work
[10] = Order of compounding of the test composition (Example 11, Table 26); assay type: physicochemical; conditions: organic solvents
Protocol: The first step in the sequence of compounding was to add pre-weighed solid sodium valproate to the stock P407 aqueous solution over ice. The temperature of P407 solution is important to keep the viscosity of this thermoreversible polymer in a liquid free-flowing state. After a clear solution was obtained, the CHIR99021-DMSO stock solution was added slowly to the NaVPA-P407-water solution. […] CHIR99021 also begins to degrade after extended periods of time in solution.

LSD1 = LSD1 (Homo sapiens, UniProt O60341); conditions: Table 18; read-out: Literat. Cell EC50; cited from earlier work
KDM1b = target: T1, KDM1b (Homo sapiens, UniProt Q8NB78); conditions: Table 18; read-out: Select KDM1b; cited from earlier work
T1 sequence (Q8NB78 1-822): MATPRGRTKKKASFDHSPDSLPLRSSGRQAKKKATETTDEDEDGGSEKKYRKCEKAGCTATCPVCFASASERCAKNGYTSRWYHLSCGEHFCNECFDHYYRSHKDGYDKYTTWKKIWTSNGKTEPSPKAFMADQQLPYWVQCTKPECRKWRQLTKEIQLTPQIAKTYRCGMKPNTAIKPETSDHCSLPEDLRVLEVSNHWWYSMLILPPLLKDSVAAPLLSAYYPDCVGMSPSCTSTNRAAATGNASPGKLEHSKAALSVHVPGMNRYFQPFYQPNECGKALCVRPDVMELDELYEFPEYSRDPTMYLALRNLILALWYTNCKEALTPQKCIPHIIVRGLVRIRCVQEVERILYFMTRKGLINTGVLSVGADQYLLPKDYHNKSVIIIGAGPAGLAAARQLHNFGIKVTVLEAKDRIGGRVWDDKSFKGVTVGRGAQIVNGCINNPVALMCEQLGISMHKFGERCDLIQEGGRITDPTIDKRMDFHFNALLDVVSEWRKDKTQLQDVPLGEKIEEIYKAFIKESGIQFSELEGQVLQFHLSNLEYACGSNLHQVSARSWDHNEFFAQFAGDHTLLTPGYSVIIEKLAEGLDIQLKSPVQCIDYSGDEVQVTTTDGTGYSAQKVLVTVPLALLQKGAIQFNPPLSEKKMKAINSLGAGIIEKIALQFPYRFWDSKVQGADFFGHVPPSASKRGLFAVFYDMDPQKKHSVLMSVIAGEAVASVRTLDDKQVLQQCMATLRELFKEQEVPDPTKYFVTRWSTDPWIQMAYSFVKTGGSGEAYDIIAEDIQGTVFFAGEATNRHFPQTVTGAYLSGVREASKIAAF

GSK-3 alpha = GSK-3 alpha (Homo sapiens, UniProt P49840); conditions: cited from earlier work
GSK-3 beta = GSK-3 beta (Homo sapiens, UniProt P49841); conditions: cited from earlier work
[11] = lyophilized composition GMP lot B17030018, Refrigerated, 1 month
[12] = lyophilized composition GMP lot B17030018, Refrigerated, 2 months
[13] = lyophilized composition GMP lot B17030018, Refrigerated, 3 months
[14] = lyophilized composition GMP lot B17030018, Refrigerated, 6 months
[15] = lyophilized composition GMP lot B17030018, Release, 0 month
[16] = lyophilized composition GMP lot B17030018, −20, 1 month
[17] = lyophilized composition GMP lot B17030018, −20, 2 months
[18] = lyophilized composition GMP lot B17030018, −20, 3 months
[19] = lyophilized composition GMP lot B17030018, −20, 6 months
[20] = lyophilized composition GMP lot B17030018, −20, 9 months
[21] = lyophilized composition GMP lot B17030018, −20, 12 months
[22] = lyophilized composition GMP lot B17030018, −20, 18 months
[23] = lyophilized composition GMP lot B17030018, −20, 24 months
[24] = Table 14, listed concentration, no test described

Sequence of ErbB3/HER3 (P21860 20-1342): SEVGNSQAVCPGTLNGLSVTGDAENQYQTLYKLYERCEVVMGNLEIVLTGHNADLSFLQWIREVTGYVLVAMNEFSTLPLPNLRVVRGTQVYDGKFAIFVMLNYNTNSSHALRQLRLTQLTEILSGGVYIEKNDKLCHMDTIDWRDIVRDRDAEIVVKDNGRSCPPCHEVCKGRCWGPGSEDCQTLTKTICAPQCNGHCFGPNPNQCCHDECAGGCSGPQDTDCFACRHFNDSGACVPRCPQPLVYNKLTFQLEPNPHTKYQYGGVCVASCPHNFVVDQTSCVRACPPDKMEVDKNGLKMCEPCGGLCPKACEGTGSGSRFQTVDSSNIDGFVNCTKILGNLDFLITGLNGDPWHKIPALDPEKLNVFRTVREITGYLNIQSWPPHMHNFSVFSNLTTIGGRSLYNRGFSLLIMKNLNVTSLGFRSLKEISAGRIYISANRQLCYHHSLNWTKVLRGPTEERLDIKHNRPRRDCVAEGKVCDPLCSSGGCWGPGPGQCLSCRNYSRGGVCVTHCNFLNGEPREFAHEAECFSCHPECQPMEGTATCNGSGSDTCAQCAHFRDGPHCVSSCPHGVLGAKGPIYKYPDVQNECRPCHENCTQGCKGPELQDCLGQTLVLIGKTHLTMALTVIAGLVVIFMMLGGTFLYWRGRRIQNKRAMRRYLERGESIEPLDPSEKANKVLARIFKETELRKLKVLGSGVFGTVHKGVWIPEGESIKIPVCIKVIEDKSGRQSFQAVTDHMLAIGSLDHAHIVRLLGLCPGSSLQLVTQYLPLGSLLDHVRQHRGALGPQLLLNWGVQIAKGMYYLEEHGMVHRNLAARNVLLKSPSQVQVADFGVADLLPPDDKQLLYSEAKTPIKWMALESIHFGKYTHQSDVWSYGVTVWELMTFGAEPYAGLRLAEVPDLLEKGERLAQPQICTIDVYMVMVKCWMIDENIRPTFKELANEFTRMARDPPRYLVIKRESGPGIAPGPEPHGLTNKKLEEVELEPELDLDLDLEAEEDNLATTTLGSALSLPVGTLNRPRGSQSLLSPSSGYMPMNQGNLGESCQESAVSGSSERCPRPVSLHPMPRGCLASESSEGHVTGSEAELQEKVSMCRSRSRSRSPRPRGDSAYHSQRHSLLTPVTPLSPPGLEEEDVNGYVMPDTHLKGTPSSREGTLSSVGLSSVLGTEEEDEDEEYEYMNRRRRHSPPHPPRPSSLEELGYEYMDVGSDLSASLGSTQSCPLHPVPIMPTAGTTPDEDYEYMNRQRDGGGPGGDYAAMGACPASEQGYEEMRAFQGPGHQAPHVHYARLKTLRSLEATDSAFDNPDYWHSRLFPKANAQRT
Sequence of GSK-3 beta (P49841 whole entry): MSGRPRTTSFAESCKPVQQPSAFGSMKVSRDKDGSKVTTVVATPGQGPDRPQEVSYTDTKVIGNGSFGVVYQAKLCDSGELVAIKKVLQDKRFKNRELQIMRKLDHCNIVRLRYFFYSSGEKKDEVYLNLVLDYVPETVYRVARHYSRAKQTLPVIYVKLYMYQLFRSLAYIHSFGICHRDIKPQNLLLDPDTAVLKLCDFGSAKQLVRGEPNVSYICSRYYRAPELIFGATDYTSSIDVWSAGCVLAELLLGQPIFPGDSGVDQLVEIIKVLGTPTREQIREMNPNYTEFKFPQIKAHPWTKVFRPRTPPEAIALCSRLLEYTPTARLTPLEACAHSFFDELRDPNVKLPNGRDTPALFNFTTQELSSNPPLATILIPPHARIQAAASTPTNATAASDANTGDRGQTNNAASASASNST
Sequence of GSK-3 alpha (P49840 whole entry): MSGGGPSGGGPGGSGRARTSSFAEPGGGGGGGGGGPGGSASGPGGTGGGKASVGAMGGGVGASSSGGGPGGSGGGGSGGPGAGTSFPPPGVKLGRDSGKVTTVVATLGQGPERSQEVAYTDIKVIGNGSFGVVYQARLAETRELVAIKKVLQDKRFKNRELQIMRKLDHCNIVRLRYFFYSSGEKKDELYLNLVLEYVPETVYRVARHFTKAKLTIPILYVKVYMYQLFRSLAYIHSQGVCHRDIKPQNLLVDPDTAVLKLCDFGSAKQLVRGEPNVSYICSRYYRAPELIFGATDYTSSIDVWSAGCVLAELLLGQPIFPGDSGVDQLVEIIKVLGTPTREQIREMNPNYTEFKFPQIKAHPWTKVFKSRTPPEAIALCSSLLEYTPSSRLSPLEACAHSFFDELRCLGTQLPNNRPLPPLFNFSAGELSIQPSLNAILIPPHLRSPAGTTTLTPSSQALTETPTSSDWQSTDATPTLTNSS

CCCC(CCC)C(=O)O [Sodium Valproate, Sodium 2-propylpentanoate]
Lgr5+ Assay (Lgr5+ cells; HDAC inhibitor table, upper end of the wrapped range 100 uM-4 mM): ≤ 4 mM
Perilymph Conc ([1]; HDAC inhibitor table, upper end of the wrapped range 100 uM-4 mM, no test described): ≤ 4000 µM
sodium valproate remained in the solution ([2]; 4 hours): about 100%
sodium valproate remained [3]: About 100%
% Rel Error [4]: 7.3% and 5.5%
Conc. [4]: 102900 µg/mL and 101100 µg/mL
% Rel Error ([4]; 24 Hrs, refrigerator 2-8° C.): 5.3% and 7.5%
Conc. ([4]; 24 Hrs, refrigerator 2-8° C.): 101000 µg/mL and 103100 µg/mL
assay level over time [5]: remained constant over this time
time assay levels remained stable with initial levels [6]: 6 h
assay level ([6]; reconstituted test composition in refrigerated syringes, up to 24 hours): remained constant over this time
Assay (drug content) [7, 11]: 100%
Assay (drug content) [7, 12]: 100%
Assay (drug content) [7, 13]: 100%
Assay (drug content) [7, 14]: 99%
Assay (drug content) [7, 15]: 100%
Assay (drug content) [7, 16]: 101%
Assay (drug content) [7, 17]: 100%
Assay (drug content) [7, 18]: 100%
Assay (drug content) [7, 19]: 100%
Assay (drug content) [7, 20]: 99%
Assay (drug content) [7, 21]: 99%
Assay (drug content) [7, 22]: 101%
Assay (drug content) [7, 23]: 98%
Reconstitution time (minutes) water + DMSO ([8]; lyophilized 16.15% P407 with salt at 533.25 mM, reconstituted with Diluent ([…] DMSO in water)): 25 min
Reconstitution time (minutes) with water ([8]; lyophilized 16.15% P407 with salt at 533.25 mM, reconstituted with water): 20 min
reconstitution time of lyophilized poloxamer with added organic acid salt ([8]; poloxamer 16.15%, salt 533.25 mM): 420 min
HDAC Potenc (HDAC): 39 to 161 µM

N[C@@H]1C[C@H]1c1ccccc1 [TCP]
Lgr5+ Assay (Lgr5+ cells; Table 18, concentration range or its upper end): 0.0001 to 0.02 mM
Perilymph Conc ([1]; Table 18, range or its upper end): 0.1 to 20 µM
Human Plasma Conc Cmax [9]: 0.03 to 0.2 µg/mL
IC50 (MAOs A and B): 1000 nM

CN1CCN(Cc2ccc(NC(=O)Cc3ccc(Oc4cc(NC(=O)C5CC5)ncn4)cc3)cc2C(F)(F)F)CC1 [WS6]
IC50 (ErbB3/HER3): 280 nM

Cc1cnc(-c2cnc(NCCNc3ccc(C#N)cn3)nc2-c2ccc(Cl)cc2Cl)[nH]1 [CHIR99021]
Perilymph Conc [1, 24]: 2 to 6 µM
total impurities formed for CHIR99021 ([2]; over 4 hours): about 4.6%
% Rel Error [4]: 2.2% and 2.4%
Conc. [4]: 3470 µg/mL and 3480 µg/mL
% Rel Error ([4]; 24 Hrs, refrigerator 2-8° C.): −1.3% and 0.6%
Conc. ([4]; 24 Hrs, refrigerator 2-8° C.): 3360 µg/mL and 3420 µg/mL
solubility of CHIR99021 [10]: very limited in almost all organic solvents except polar solvents, such as DMSO
assay level over time [5]: decreased from its initial level over time
time assay levels remained stable with initial levels [6]: 6 h
decrease of assay level from its initial level ([6]; reconstituted test composition in refrigerated syringes, sometime between 8 and 24 hours): 37%
Assay (drug content) [7, 11]: 105%
Assay (drug content) [7, 12]: 105%
Assay (drug content) [7, 13]: 104%
Assay (drug content) [7, 14]: 102%
Assay (drug content) [7, 15]: 103%
Assay (drug content) [7, 16]: 107%
Assay (drug content) [7, 17]: 107%
Assay (drug content) [7, 18]: 104%
Assay (drug content) [7, 19]: 103%
Assay (drug content) [7, 20]: 102%
Assay (drug content) [7, 21]: 99%
Assay (drug content) [7, 22]: 100%
Assay (drug content) [7, 23]: 100%

O=C(O)c1ccc(CN2CCC(CN[C@@H]3C[C@H]3c3ccccc3)CC2)cc1 [GSK-2879552]
Lgr5+ Assay (Lgr5+ cells; Table 18, lower end of concentration range): ≥ 40 nM-
Perilymph Conc ([1]; Table 18, lower end of range): ≥ 40 nM-
Perilymph Conc ([1]; Table 18, upper end of range): ≤ 30 µM
Human Plasma Conc [9]: 1 to 100 nM
EC50 (LSD1): 2 to 240 nM
IC50 (KDM1b): 20000 nM

O=C1NC(=O)C(c2cnc3ccccn23)=C1c1cn2c3c(cc(F)cc13)CN(C(=O)N1CCCCC1)CC2 [LY2090314, 3-(9-fluoro-2-(piperidine-1-carbonyl)-1,2,3,4-tetrahydro-[1,4]diazepino[6,7,1-hi]indol-7-yl)-4-(imidazo[1,2-a]pyridin-3-yl)-1H-pyrrole-2,5-dione]
Lgr5+ Assay (Lgr5+ cells; Table 14): 5e-06 to 2e-05 mM
Perilymph Conc [1, 24]: 0.005 to 0.02 µM
GSK-3 alpha (GSK-3 alpha): 2.1 nM
GSK-3 beta (GSK-3 beta): 0.9 nM
